Experiments:
Assay in all cases: KINOMEscan (ScanMAX) kinase profiling
Assay type in all cases: binding
panel of 468 kinases [1] = target: T1, panel of 468 kinases (Homo sapiens, UniProt Q9UF33); details: EPHA6; 1 μM; read-out: % control
T1 construct: purchased KINOMEscan (ScanMAX) service
T1 sequence (Q9UF33 23-1036): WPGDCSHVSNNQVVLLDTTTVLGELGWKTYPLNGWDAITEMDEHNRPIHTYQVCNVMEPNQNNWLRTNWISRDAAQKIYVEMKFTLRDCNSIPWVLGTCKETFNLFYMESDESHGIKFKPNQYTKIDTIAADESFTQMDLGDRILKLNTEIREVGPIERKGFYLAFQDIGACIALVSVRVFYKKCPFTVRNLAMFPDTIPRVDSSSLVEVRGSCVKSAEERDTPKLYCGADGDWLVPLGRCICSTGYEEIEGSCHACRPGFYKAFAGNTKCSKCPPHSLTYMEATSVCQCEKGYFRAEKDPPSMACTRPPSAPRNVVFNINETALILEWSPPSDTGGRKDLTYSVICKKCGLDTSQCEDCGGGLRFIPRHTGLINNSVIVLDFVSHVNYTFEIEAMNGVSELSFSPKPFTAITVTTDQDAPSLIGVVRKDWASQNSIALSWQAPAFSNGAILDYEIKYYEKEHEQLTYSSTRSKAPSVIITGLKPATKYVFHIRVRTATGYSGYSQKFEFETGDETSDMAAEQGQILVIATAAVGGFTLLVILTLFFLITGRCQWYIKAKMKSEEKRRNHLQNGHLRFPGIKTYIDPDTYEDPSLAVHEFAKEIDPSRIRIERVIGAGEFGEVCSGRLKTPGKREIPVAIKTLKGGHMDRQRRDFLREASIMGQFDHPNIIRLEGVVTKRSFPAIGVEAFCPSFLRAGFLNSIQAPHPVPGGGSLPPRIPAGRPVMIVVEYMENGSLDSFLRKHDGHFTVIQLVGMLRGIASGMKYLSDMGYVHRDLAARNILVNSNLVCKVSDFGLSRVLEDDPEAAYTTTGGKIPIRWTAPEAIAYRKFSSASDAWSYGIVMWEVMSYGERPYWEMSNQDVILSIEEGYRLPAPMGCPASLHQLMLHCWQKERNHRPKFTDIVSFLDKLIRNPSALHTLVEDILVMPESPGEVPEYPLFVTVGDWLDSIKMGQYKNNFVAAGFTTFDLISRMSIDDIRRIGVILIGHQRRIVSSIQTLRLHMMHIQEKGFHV

panel of 468 kinases [2] = target: T2, panel of 468 kinases (Homo sapiens, UniProt Q13237); details: PRKG2; 1 μM; read-out: % control
T2 construct: purchased KINOMEscan (ScanMAX) service
T2 sequence (Q13237 1-762): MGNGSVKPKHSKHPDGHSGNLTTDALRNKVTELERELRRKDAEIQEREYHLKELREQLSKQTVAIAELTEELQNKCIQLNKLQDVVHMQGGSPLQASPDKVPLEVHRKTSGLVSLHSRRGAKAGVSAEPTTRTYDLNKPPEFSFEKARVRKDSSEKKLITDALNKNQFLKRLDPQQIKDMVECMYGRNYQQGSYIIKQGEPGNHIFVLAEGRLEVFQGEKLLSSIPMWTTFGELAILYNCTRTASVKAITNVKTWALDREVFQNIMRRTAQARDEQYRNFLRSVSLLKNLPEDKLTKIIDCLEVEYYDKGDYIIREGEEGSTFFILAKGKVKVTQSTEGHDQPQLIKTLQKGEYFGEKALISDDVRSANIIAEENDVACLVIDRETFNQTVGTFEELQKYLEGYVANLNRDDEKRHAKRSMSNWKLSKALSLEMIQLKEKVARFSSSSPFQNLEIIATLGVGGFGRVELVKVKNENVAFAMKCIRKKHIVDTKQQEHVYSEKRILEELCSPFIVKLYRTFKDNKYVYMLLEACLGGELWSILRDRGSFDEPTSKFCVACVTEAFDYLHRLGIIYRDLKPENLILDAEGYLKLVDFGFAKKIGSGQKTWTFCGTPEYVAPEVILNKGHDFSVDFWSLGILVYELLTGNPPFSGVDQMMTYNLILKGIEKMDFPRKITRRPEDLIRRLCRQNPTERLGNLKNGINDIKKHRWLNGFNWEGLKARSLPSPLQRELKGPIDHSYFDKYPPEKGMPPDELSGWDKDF

panel of 468 kinases [3] = target: T3, panel of 468 kinases (Homo sapiens, UniProt Q9Y5S2); details: MRCKB; 1 μM; read-out: % control
T3 construct: purchased KINOMEscan (ScanMAX) service

panel of 468 kinases [4] = target: T4, panel of 468 kinases (Homo sapiens, UniProt Q9H093); details: SNARK; 1 μM; read-out: % control
T4 construct: purchased KINOMEscan (ScanMAX) service
T4 sequence (Q9H093 1-628): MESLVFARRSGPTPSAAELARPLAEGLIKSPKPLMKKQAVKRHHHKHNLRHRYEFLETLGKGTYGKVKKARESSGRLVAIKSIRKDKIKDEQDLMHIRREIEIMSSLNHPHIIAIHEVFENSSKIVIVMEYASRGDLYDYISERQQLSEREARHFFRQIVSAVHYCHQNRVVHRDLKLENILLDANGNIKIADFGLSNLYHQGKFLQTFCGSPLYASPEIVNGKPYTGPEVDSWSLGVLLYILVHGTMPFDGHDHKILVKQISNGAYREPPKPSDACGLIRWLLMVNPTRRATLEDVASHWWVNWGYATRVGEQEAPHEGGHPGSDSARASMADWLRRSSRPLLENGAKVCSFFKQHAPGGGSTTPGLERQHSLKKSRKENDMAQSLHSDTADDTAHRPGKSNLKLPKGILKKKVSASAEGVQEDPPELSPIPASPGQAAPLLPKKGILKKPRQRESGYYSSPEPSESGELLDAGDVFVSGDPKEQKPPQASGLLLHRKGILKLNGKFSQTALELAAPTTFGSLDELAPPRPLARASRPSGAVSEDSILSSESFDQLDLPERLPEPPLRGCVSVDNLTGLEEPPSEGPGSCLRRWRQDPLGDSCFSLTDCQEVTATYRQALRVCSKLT

panel of 468 kinases [5] = target: T5, panel of 468 kinases (Homo sapiens, UniProt Q15208); details: NDR1; 1 μM; read-out: % control
T5 construct: purchased KINOMEscan (ScanMAX) service
T5 sequence (Q15208 whole entry): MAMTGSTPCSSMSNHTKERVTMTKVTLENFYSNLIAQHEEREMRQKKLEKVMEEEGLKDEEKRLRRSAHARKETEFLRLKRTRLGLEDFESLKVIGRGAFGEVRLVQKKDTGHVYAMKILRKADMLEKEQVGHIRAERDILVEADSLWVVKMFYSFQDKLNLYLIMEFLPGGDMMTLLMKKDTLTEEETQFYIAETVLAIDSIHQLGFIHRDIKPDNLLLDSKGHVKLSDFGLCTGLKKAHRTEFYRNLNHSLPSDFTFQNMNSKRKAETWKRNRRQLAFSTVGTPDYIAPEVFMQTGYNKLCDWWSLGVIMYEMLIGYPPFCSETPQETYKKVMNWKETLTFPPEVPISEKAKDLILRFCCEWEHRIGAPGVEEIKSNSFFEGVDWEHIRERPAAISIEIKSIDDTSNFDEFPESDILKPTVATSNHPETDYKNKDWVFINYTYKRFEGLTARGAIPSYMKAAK

T3 sequence (Q9Y5S2 whole entry): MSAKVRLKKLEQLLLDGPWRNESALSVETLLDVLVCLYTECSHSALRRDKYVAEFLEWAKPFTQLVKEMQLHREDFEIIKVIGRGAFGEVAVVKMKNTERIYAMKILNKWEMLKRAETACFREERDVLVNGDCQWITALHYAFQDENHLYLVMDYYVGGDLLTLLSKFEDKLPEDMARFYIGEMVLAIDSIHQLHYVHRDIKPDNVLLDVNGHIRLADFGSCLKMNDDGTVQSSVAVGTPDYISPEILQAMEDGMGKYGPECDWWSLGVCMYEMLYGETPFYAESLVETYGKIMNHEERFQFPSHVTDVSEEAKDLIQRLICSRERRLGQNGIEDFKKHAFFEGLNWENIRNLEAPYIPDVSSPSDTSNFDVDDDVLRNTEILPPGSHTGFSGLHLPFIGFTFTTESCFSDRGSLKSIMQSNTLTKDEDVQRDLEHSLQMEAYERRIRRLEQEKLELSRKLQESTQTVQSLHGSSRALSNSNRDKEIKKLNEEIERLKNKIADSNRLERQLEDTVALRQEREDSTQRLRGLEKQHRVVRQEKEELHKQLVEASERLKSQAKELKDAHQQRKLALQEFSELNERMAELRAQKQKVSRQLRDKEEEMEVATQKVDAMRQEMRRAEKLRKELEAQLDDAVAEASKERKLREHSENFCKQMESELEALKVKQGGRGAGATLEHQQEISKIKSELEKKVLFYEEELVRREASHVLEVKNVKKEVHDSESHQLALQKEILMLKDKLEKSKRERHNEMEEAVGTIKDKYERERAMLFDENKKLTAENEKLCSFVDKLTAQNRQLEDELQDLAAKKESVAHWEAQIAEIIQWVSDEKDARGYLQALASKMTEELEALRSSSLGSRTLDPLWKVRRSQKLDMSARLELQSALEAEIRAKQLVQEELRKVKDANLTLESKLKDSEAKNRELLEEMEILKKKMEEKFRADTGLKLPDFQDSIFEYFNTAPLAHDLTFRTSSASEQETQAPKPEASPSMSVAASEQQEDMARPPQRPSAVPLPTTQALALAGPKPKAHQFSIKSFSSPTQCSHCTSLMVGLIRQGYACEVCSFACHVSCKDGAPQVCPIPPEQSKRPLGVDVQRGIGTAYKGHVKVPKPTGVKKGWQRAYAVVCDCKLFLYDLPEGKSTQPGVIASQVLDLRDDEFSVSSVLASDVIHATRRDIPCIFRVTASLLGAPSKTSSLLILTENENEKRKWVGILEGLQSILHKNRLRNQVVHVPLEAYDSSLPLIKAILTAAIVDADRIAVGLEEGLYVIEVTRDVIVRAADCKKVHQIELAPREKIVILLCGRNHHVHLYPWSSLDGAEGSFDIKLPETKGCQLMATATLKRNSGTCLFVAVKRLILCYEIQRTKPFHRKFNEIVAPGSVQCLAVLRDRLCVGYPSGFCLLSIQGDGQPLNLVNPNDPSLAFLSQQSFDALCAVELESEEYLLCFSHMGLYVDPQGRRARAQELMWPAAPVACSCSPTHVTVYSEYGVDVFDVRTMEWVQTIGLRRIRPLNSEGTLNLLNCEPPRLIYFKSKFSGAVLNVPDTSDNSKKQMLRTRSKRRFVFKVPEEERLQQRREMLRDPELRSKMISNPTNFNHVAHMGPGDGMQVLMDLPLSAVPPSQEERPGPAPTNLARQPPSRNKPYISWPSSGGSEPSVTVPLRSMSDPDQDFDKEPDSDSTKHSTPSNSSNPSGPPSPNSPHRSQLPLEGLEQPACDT

| Structure (SMILES) | remaining binding at 1 µM (panel of 468 kinases [1]) [%] | remaining binding at 1 µM (panel of 468 kinases [2]) [%] | remaining binding at 1 µM (panel of 468 kinases [3]) [%] | remaining binding at 1 µM (panel of 468 kinases [4]) [%] | remaining binding at 1 µM (panel of 468 kinases [5]) [%] |
| --- | --- | --- | --- | --- | --- |
| CNc1nc(Nc2ccc(S(=O)(=O)N3CCC(N4CCOCC4)CC3)cc2OC)nc2[nH]cc(Cl)c12 [Compound 12, 5-chloro-N2-(2-methoxy-4-((4-morpholinopiperidin-1-yl)sulfonyl)phenyl)-N4-methyl-7H-pyrrolo[2,3-d]pyrimidine-2,4-diamine] | 100 | 100 | 100 | 75 | 83 |
| CNc1nc(Nc2ccc(C(=O)N3CCC(N4CCOCC4)CC3)c3c2OCO3)nc2[nH]cc(Cl)c12 [Compound 75, (7-((5-chloro-4-(methylamino)-7H-pyrrolo[2,3-d]pyrimidin-2-yl)amino)benzo[d][1,3]dioxol-4-yl)(4-morpholinopiperidin-1-yl)methanone] | 100 | 100 | 100 | 19 | 90 |
| CNc1nc(Nc2ccc(P3(=O)CCN(C4CCOCC4)CC3)cc2OC)nc2[nH]cc(Cl)c12 [Compound 77, 4-(4-((5-chloro-4-(methylamino)-7H-pyrrolo[2,3-d]pyrimidin-2-yl)amino)-3-methoxyphenyl)-1-(tetrahydro-2H-pyran-4-yl)-1,4-azaphosphinane 4-oxide] | 100 | 100 | 100 | 70 | 83 |

Reference: patent publication US12479847B2 (DANA-FARBER CANCER INSTITUTE, INC., priority 2019, dated 2025)
